{
  "source": "patent US5021439A",
  "about": "“Cerebral function ameliorating agents related to Tan-950 A” (priority 1988, dated 1991)",
  "key": {"[1]": {"test": "Conversion of each component of TAN-950 in aqueous solution (HPLC)", "format": "physicochemical", "settings": "60° C.", "quoted_text": "The mixture of TAN-950A - E was applied to HPLC in order to isolate each component thereof and each component was isolated as approximately single peak compound."}, "[2]": {"biological_target": "Quisqualate-type receptor", "test": "Binding assay of Quisqualate-type receptor (3H-AMPA) on rat forebrain crude synaptic membrane", "excerpt": "(§1) The receptors of the exitatory amino acid (especially, glutamate) are classified into NMDA type, Quisqualate type and Kainate type. 3H-CPP [3-(2-carboxypiperazin-4-yl)propyl-1-[…]] as the ligand (a radio active substance which has high affinity for the receptor) for the NMDA-type-receptor, ^3 H-AMPA (DL-α-amino-3-hydroxy-5-methylisoxazole-4-propionic acid) as the ligand for the quisqualate-type-receptor, and ^3 H-kainic acid as the ligand for the kainate-type-receptor were used respectively. A sample of the crude synaptic membrane prepared from the forebrain of rat was washed 4 times by Tris hydrochloric acid buffer (pH 7.1) and kept in a freezing condition at -20° C. until its use.\n(§2) Samples of the frozen crude synaptic membrane were melted and, after floating on 50 mM Tris hydrochloric acid buffer (pH 7.1), incubated for 30 minutes at 37° C. After the incubation, the synaptic membrane was centrifuged (48,000×g) and washed 3 times with 50 mM Tris hydrochloric acid buffer and used in the test.\n(§3) In the binding assay of the NMDA-type-receptor, samples of the synaptic membrane were incubated in the presence or absence of a test compound together with 10 nM ^3 H-CPP in 50 mM Tris hydrochloric acid buffer (pH 7.1, 0° C.) for 15 minutes. The sediment (pellet) containing synapse membrane which was recovered by centrifugation of the incubation solution was rinsed with 50 mM Tris hydrochloric acid buffer (pH 7.1) and dissolved in 0.5 ml of Protosol® (made by New England Nuclear Inc.). In the binding assay of Quisqualate-type-receptor and Kainate-type-receptor, samples of the synapse was incubated in the presence or absence of a test compound in 5 nM ^3 H-AMPA (Quisqualate-type-receptor) or 2 nM ^3 H-Kainic acid (Kainate-type-receptor) together with 50 mM Tris hydrochloric acid buffer (pH 7.1, 0° C.) for 90 minutes. The solution was filtered with Whatman GF/B filter (Whatman®, made by Whatman Inc.) under reduced pressure and the filter was washed 3 times with 50 mM Tris hydrochloric acid buffer. The radioactivity on the filter was measured by a conventional method. The specific binding amount was determined by subtracting the non-specific binding from the total binding, taking the binding in the presence of an excessive non-radioactive L-sodium glutamate (1 mM) as the amount of the non-specfic binding, i.e., the binding to anything other than the receptor."}, "[3]": {"biological_target": "NMDA-type receptor", "test": "Binding assay of NMDA-type receptor (3H-CPP) on rat forebrain crude synaptic membrane", "settings": "10 nM 3H-CPP, pH 7.1, 0° C., 15 min; read-out: Affinity to NMDA-type receptor (3H-CPP), IC50", "excerpt": "as §1, §2\nas §3, with “receptor. The 50% inhibiting concentration (IC50) of the compound to be tested was determined as the concentration which inhibits 50% of the specific receptor binding of ^3 H-CPP, ^3 H-AMPA or ^3 H-kainic acid.” for “receptor.”"}, "[4]": {"test": "Acute toxicity in mouse", "settings": "in vivo, any administration routes (iv, ip, sc, po)"}, "[5]": {"test_system": "neurons of rat hippocampus", "test": "Excitatory action on neurons of rat hippocampus in vitro (CA1 spike recording in slices)", "format": "cell-based", "settings": "rat hippocampal slices, CA1 pyramidal cell layer, Krebs-Ringer solution 33° C., read-out: Minimum effective concentration to induce firing of hippocampus nervous cell", "procedure": "Male Wister rats (body weight: 300 -350 g) were used in the test. After cutting the head of rats, the brain was quickly taken out and […] thickness of the sliced samples of a hippocampus was prepared by a slice cutter. These samples were incubated in a nutrient solution (Krebs-Ringer solution, 33° C.) saturated with a mixed gas of 95% of oxygen gas and 5% of carbon dioxide gas for one or more hours. The test was carried out in the perfusion cisterna with perfusing at the flow speed of 1.5 ml/min. The action potential (spike) in CA1 pyramidal cell layer of the hippocampus was recorded extracellularlly by using a glass electrode filled with 2M NaCl solution. The test compounds were added to the perfusate and the change in number of the spikes with passage of time was counted by a pulse counter and recorded on the recorder. The Krebs-Ringer's solution contains 124 mM of NaCl, 5 mM of KCl, 1.24 mM of KH2 PO4, 1.3 mM of MgSO4, 2.4 mM of CaCL2, 26 mM of […] and 10 mM of glucose."}, "[6]": {"test": "Solubility", "format": "physicochemical"}, "[7]": {"biological_target": "Kainate-type receptor", "test": "Binding assay of Kainate-type receptor (3H-kainic acid) on rat forebrain crude synaptic membrane", "excerpt": "as §1, §2, §3"}, "[8]": {"test_system": "glutamate receptor (NMDA type, Quisqualate type and Kainate type)", "test": "Affinity for the glutamate receptors of the brain, 3 sub-types taken together", "format": "binding, rat", "settings": "summary of Table 5", "excerpt": "as §1, §2\nas §3, with “receptor. The 50% inhibiting concentration (IC50) of the compound to be tested was determined as the concentration which inhibits 50% of the specific receptor binding of ^3 H-CPP, ^3 H-AMPA or ^3 H-kainic acid.” for “receptor.”"}, "[9]": {"settings": "starting material heated in aqueous solution, 1 hour"}},
  "note": "Read-outs that look alike come from different tables or passages of the source.",
  "data": [
    {"compound": "N[C@@H](Cc1c[nH]oc1=O)C(=O)O", "note": "[Compound 1, TAN-950A]", "values": [
      {"measurement": "Conversion in aqueous solution (in words)", "setting": "[1]; aqueous solution", "value": "converted mainly to TAN-950B and D, but slightly to TAN-950C and E"},
      {"measurement": "TAN-950A in resulting substance, area percentage by HPLC", "setting": "[1]; [9]", "value": 63.8, "unit": "%"},
      {"measurement": "TAN-950B in resulting substance, area percentage by HPLC", "setting": "[1]; [9]", "value": 13.0, "unit": "%"},
      {"measurement": "TAN-950C in resulting substance, area percentage by HPLC", "setting": "[1]; [9]", "value": 5.7, "unit": "%"},
      {"measurement": "TAN-950D in resulting substance, area percentage by HPLC", "setting": "[1]; [9]", "value": 12.1, "unit": "%"},
      {"measurement": "TAN-950E in resulting substance, area percentage by HPLC", "setting": "[1]; [9]", "value": 3.1, "unit": "%"},
      {"measurement": "IC50", "setting": "[2]; 5 nM 3H-AMPA, pH 7.1, 0° C., 90 min, read-out: Affinity to Quisqulate-type receptor (3H-AMPA), IC50", "value": 0.28, "unit": "µM"},
      {"measurement": "Affinity to the Quisqualate-type-receptor (in words)", "setting": "[2]; summary of Table 5", "value": "strong affinity"},
      {"measurement": "IC50", "setting": "[3]", "value": 19, "unit": "µM"},
      {"measurement": "LD50", "setting": "[4]", "value": "> 4000", "unit": "mg/kg"},
      {"measurement": "minimal effective concentration", "setting": "[5]; Rattus norvegicus, Neuron", "value": "≥ 300", "unit": "µM"},
      {"measurement": "minimal effective concentration", "setting": "[5]; listed as 1 (sodium salt)", "value": 300, "unit": "µM"},
      {"measurement": "Solubility in acetone", "setting": "[6]; acetone", "value": "Sparingly soluble"},
      {"measurement": "Solubility in chloroform", "setting": "[6]; chloroform", "value": "Sparingly soluble"},
      {"measurement": "Solubility in dimethylsulfoxide", "setting": "[6]; dimethylsulfoxide", "value": "Soluble"},
      {"measurement": "Solubility in ethyl acetate", "setting": "[6]; ethyl acetate", "value": "Sparingly soluble"},
      {"measurement": "Solubility in methanol", "setting": "[6]; methanol", "value": "Soluble"},
      {"measurement": "Solubility in water", "setting": "[6]; water", "value": "Soluble"},
      {"measurement": "Affinity to Kainate-type receptor (3H-KA), IC50", "setting": "[7]; 2 nM 3H-Kainic acid, pH 7.1, 0° C., 90 min", "value": 3.6, "unit": "µM"},
      {"measurement": "Affinity to the Kainate-type-receptor (in words)", "setting": "[7]; summary of Table 5", "value": "strong affinity"},
      {"measurement": "Affinity to the 3 sub-type receptors (in words)", "setting": "[8]", "value": "high affinities to the 3 sub-type receptors"}
    ]}
  ]
}
